Source: patent publication US20240043420A1, “7-AZAINDOLE COMPOUNDS FOR INHIBITION OF BCR-ABL TYROSINE KINASES” (EnLiven Therapeutics, Inc., priority 2020, published 2024)

Experiments:
[1] = tested on: pCRKL in Ba/F3 ABL1 (T315I) cells; test: pCRKL ELISA assay in Ba/F3 ABL T315I cells; assay type: cell-based; conditions: Mus musculus, BaF3, 1.5 h, 90 minutes incubation, read-out: pCRKL ELISA, Cell Line IC50 (nM) Ba/F3 ABL1 (T315I)
Protocol: (§1) K562 or Ba/F3 ABL T315I cells (2.0*10^5 cells/100 μl/well) were seeded in 96 well (Corning, cat #3799). Compounds were dissolved in DMSO, serially diluted in DMSO and then were added, mixed, and incubated for 90 minutes at 37° C., 5% CO2. Following the 90-minute incubation, plates were centrifuged for 5 min at 3000 RPM and supernatant was removed from each well. Cells were washed 3 times with 150 μl PBS prior to addition of 100 μl cell RIPA lysis buffer (Boston BioProducts, cat #BP-115D) supplied with 1×complete ULTRA cocktail inhibitor (Roche, 05892791001) and 1×PhosSTOP Phosphatase Inhibitor Cocktail Tablets (Roche, 04906837001). Cells were incubated with lysis buffer for 1 hour at 4° C. prior to storage at −80 C.
(§2) A capture antibody able to detect phosphorylated and non-phosphorylated CRKL (R&D Systems, cat #AF5127) was added to Meso Scale Discovery (MSD) standard bind plates (MSD, cat #L15XA-3) at 5 ug/mL and incubated at 4° C. overnight. The next day, plates were washed with PBS+0.05% Tween20 (PBST) and 150 μl of 5% BSA blocking solution was added for 1 hour at room temperature with shaking. Plates were washed with PBST. Lysates were thawed and 30 μl of lysate was added to the MSD plates and incubated for 2 hours at room temperature with shaking. MSD plates were washed with PBST and 30 μl of a detection antibody that binds phosphorylated pCRKL (R&D Systems, cat #MAB6910) was added at 1 μg/mL to each well. Plates were incubated for 1 hour at room temperature with shaking. Plates were washed with PBST prior to addition of 30 μl of a sulfo tagged goat anti mouse detection antibody (MSD cat #R32AC-1). Plates were incubated for 1 hour at room temperature with shaking. Plates were washed with PBST prior to addition of 150 ul of 1×MSD read buffer T (MSD, cat 4R92TC-2). Electrochemiluminescence (ECLU) was read on an MSD plate reader (Meso Scale Discovery). The remaining activity by calculated as follows: 00 Relative activity=100×(ELCUsample−ECLULC)/(ECLUHC−ECLULC). The low and high controls (LC/HC) are generated from lysate from wells without cells or with cells treated with 0.1% DMSO, respectively. IC50 values were calculated using XLFit software using a nonlinear regression model with a sigmoidal dose response and are shown in Table 4 and Table 5 below.

ABL1 = target: T1, ABL1 (Homo sapiens, UniProt P00519); test: Luminescence-based ABL kinase assay (ADP-Glo, 300 μM ATP); assay type: biochemical
T1 construct: purchased Carna Biosciences
Procedure, shortened: (§3)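 Buffer: 50 mM HEPES pH 7.5, 10 mM MgCl2, 1 mM EGTA, 2 mM DTT, 0.05% BSA. Compound preincubated 30 min at RT with kinase (3.325 nM in enzyme solution), then started with a Peptide 2 (6 μM) and ATP (1.2 mM) solution, both stock levels; 90 min at RT.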

ABL1 (T315I) = ABL1 (T315I) (Homo sapiens, UniProt P00519, T315I); test: Luminescence-based ABL kinase assay (ADP-Glo, 300 μM ATP), T315I mutant; assay type: biochemical
Procedure, shortened: as §3

HL60 cells = test: HL60 cell proliferation assay (CellTiter-Glo); assay type: cell-based; conditions: Homo sapiens, HL-60, 72 h, CellTiter-Glo viability, read-out: Cell Line (IC50, nM) HL60
Procedure, shortened: (§4)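 Cells in IMDM/10% FBS seeded at 2,000 (K562) or 1,500 (HL60) per well, exposed to serially diluted compounds for 72 h at 37 °C, 5% CO2. Viability by CellTiter-Glo luminescence, normalized between DMSO (high) and cell-free media (low) controls.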

K562 cells = test: K562 cell proliferation assay (CellTiter-Glo); assay type: cell-based; conditions: Homo sapiens, K562, 72 h, CellTiter-Glo viability, read-out: Cell Line (IC50, nM) K562
Procedure, shortened: as §4

pCRKL in K562 cells = test: pCRKL ELISA assay in K562 cells; assay type: cell-based; conditions: Homo sapiens, 1.5 h, 90 minutes incubation, read-out: PCRKL ELISA, Cell Line IC50 (nM) K562
Protocol: as §1, §2

COc1ncc(F)c(OC)c1-c1c[nH]c2nc(NC(=O)NCCN3CCN(C)CC3)ccc12 [Compound 116, 3-[3-(5-fluoro-2,4-dimethoxypyridin-3-yl)-1H-pyrrolo[2,3-b]pyridin-6-yl]-1-[2-(4-methylpiperazin-1-yl)ethyl]urea]
IC50 [1]: 1060 nM
IC50 (ABL1): 49.4 nM
IC50 (ABL1 (T315I)): 59.3 nM
IC50 (HL60 cells): > 10000 nM
IC50 (K562 cells): 142 nM

COc1cc2ncsc2cc1-c1c[nH]c2nc(NC(=O)[C@@H]3C[C@@H]3F)ccc12 [Compound 86, (1S,2S)-2-fluoro-N-(3-(5-methoxybenzo[d]thiazol-6-yl)-1H-pyrrolo[2,3-b]pyridin-6-yl)cyclopropane-1-carboxamide]
IC50 [1]: 84.2 nM
IC50 (ABL1): 5.97 nM
IC50 (ABL1 (T315I)): 5.48 nM
IC50 (HL60 cells): > 10000 nM
IC50 (K562 cells): 30.5 nM

O=C(Nc1ccc2c(-c3ccc4nccn4c3)c[nH]c2n1)C1CC1 [Compound 56, N-(3-(imidazo[1,2-a]pyridin-6-yl)-1H-pyrrolo[2,3-b]pyridin-6-yl)cyclopropanecarboxamide]
IC50 (pCRKL in K562 cells): 745 nM
IC50 (ABL1): 30.3 nM
IC50 (ABL1 (T315I)): 53.5 nM
IC50 (HL60 cells): 120 nM
IC50 (K562 cells): 183 nM

CCOc1ncccc1-c1c[nH]c2nc(NC(=O)[C@@H]3C[C@@H]3F)ccc12 [Compound 62, (1S,2S)—N-(3-(2-ethoxypyridin-3-yl)-1H-pyrrolo[2,3-b]pyridin-6-yl)-2-fluorocyclopropane-1-carboxamide]
IC50 (pCRKL in K562 cells): 171 nM
IC50 (ABL1): 20.8 nM
IC50 (ABL1 (T315I)): 43 nM
IC50 (HL60 cells): > 10000 nM
IC50 (K562 cells): 137 nM

COc1ncc(F)cc1-c1n[nH]c2nc(NC(=O)[C@@H]3C[C@@H]3F)ccc12 [Compound 74, (1S,2S)-2-fluoro-N-[3-(5-fluoro-2-methoxypyridin-3-yl)-1H-pyrazolo[3,4-b]pyridin-6-yl]cyclopropane-1-carboxamide]
IC50 (pCRKL in K562 cells): 572 nM
IC50 (ABL1): 55.6 nM
IC50 (ABL1 (T315I)): 63 nM
IC50 (HL60 cells): > 10000 nM
IC50 (K562 cells): 351 nM

CCOc1ncccc1-c1c[nH]c2nc(NC(=O)[C@H]3C[C@H]3F)ccc12 [Compound 63, (1R,2R)—N-(3-(2-ethoxypyridin-3-yl)-1H-pyrrolo[2,3-b]pyridin-6-yl)-2-fluorocyclopropane-1-carboxamide]
IC50 (pCRKL in K562 cells): 328 nM
IC50 (ABL1): 40.7 nM
IC50 (ABL1 (T315I)): 64.5 nM
IC50 (HL60 cells): > 10000 nM
IC50 (K562 cells): 255 nM

COc1cc2[nH]ncc2cc1-c1n[nH]c2nc(NC(=O)[C@@H]3C[C@@H]3F)ccc12 [Compound 82, (1S,2S)-2-fluoro-N-[3-(6-methoxy-1H-indazol-5-yl)-1H-pyrazolo[3,4-b]pyridin-6-yl]cyclopropane-1-carboxamide]
IC50 (pCRKL in K562 cells): 1050 nM
IC50 (ABL1): 13.5 nM
IC50 (ABL1 (T315I)): 20.5 nM
IC50 (HL60 cells): > 10000 nM
IC50 (K562 cells): 437 nM

COc1cccc(OC)c1-c1c[nH]c2nc(NC(=O)NCCN3CCN(C)CC3)ccc12 [Compound 117, 3-[3-(2,6-dimethoxyphenyl)-1H-pyrrolo[2,3-b]pyridin-6-yl]-1-[2-(4-methylpiperazin-1-yl)ethyl]urea]
IC50 [1]: 124 nM
IC50 (ABL1): 11.3 nM
IC50 (ABL1 (T315I)): 9.08 nM
IC50 (HL60 cells): > 10000 nM
IC50 (K562 cells): 67.1 nM

COc1cccc(OC)c1-c1c[nH]c2nc(NC(=O)NCCN3CCNCC3)ccc12 [Compound 135, 3-[3-(2,6-dimethoxyphenyl)-1H-pyrrolo[2,3-b]pyridin-6-yl]-1-[2-(piperazin-1-yl)ethyl]urea]
IC50 (pCRKL in K562 cells): 1210 nM
IC50 (ABL1): 24.9 nM
IC50 (ABL1 (T315I)): 15.8 nM
IC50 (HL60 cells): > 10000 nM
IC50 (K562 cells): 165 nM

COc1ccc(F)c(OC)c1-c1c[nH]c2nc(NC(=O)NCCN3CCN(C)CC3)ccc12 [Compound 145, 3-[3-(3-fluoro-2,6-dimethoxyphenyl)-1H-pyrrolo[2,3-b]pyridin-6-yl]-1-[2-(4-methylpiperazin-1-yl)ethyl]urea]
IC50 (pCRKL in K562 cells): 399 nM
IC50 (ABL1): 51.6 nM
IC50 (ABL1 (T315I)): 44.3 nM
IC50 (HL60 cells): > 10000 nM
IC50 (K562 cells): 120 nM

COc1cc2[nH]ncc2cc1-c1c[nH]c2nc(NC(=O)[C@H]3C[C@H]3F)ccc12 [Compound 53, (1R,2R)-2-fluoro-N-[3-(6-methoxy-1H-indazol-5-yl)-1H-pyrrolo[2,3-b]pyridin-6-yl]cyclopropane-1-carboxamide]
IC50 (pCRKL in K562 cells): 584 nM
IC50 (ABL1): 6.92 nM
IC50 (ABL1 (T315I)): 5.63 nM
IC50 (HL60 cells): 3110 nM
IC50 (K562 cells): 267 nM

COc1cccc(OC)c1-c1c[nH]c2nc(NC(=O)NCCCN(C)C)ccc12 [Compound 131, 1-[3-(2,6-dimethoxyphenyl)-1H-pyrrolo[2,3-b]pyridin-6-yl]-3-[3-(dimethylamino)propyl]urea]
IC50 (pCRKL in K562 cells): 272 nM
IC50 (ABL1): 42.7 nM
IC50 (ABL1 (T315I)): 28.1 nM
IC50 (HL60 cells): > 10000 nM
IC50 (K562 cells): 83.3 nM

COc1cc2[nH]ncc2cc1-c1c[nH]c2nc(NC(=O)[C@@H]3C[C@@H]3F)ccc12 [Compound 50, (1S,2S)-2-fluoro-N-[3-(6-methoxy-1H-indazol-5-yl)-1H-pyrrolo[2,3-b]pyridin-6-yl]cyclopropane-1-carboxamide]
IC50 (pCRKL in K562 cells): 151 nM
IC50 (ABL1): 3.9 nM
IC50 (ABL1 (T315I)): 2.51 nM
IC50 (HL60 cells): > 10000 nM
IC50 (K562 cells): 120 nM

COc1cc2[nH]cnc2cc1-c1c[nH]c2nc(NC(=O)[C@@H]3C[C@@H]3F)ccc12 [Compound 49, (1S,2S)-2-fluoro-N-[3-(6-methoxy-1H-1,3-benzodiazol-5-yl)-1H-pyrrolo[2,3-b]pyridin-6-yl]cyclopropane-1-carboxamide]
IC50 (pCRKL in K562 cells): 585 nM
IC50 (ABL1): 4.33 nM
IC50 (ABL1 (T315I)): 3.04 nM
IC50 (HL60 cells): > 10000 nM
IC50 (K562 cells): 295 nM

COc1c(-c2c[nH]c3nc(NC(=O)[C@H]4C[C@H]4F)ccc23)ccc2[nH]cnc12 [Compound 51, (1R,2R)-2-fluoro-N-[3-(4-methoxy-1H-1,3-benzodiazol-5-yl)-1H-pyrrolo[2,3-b]pyridin-6-yl]cyclopropane-1-carboxamide]
IC50 (pCRKL in K562 cells): 1350 nM
IC50 (ABL1): 15.4 nM
IC50 (ABL1 (T315I)): 4.41 nM
IC50 (HL60 cells): > 10000 nM
IC50 (K562 cells): 668 nM

COc1cc2[nH]cnc2cc1-c1c[nH]c2nc(NC(=O)[C@H]3C[C@H]3F)ccc12 [Compound 52, (1R,2R)-2-fluoro-N-[3-(6-methoxy-1H-1,3-benzodiazol-5-yl)-1H-pyrrolo[2,3-b]pyridin-6-yl]cyclopropane-1-carboxamide]
IC50 (pCRKL in K562 cells): 3120 nM
IC50 (ABL1): 8.95 nM
IC50 (ABL1 (T315I)): 13.7 nM
IC50 (HL60 cells): > 10000 nM
IC50 (K562 cells): 829 nM

COc1nc2nc[nH]c2cc1-c1c[nH]c2nc(NC(=O)C3CC3)ccc12 [Compound 61, N-(3-[5-methoxy-1H-imidazo[4,5-b]pyridin-6-yl]-1H-pyrrolo[2,3-b]pyridin-6-yl)cyclopropanecarboxamide]
IC50 (pCRKL in K562 cells): 88.4 nM
IC50 (ABL1): 3.28 nM
IC50 (ABL1 (T315I)): 5.08 nM
IC50 (HL60 cells): > 10000 nM
IC50 (K562 cells): 36.9 nM

COc1ccccc1-c1n[nH]c2nc(NC(=O)C3CC3)ccc12 [Compound 44, N-[3-(2-methoxyphenyl)-1H-pyrazolo[3,4-b]pyridin-6-yl]cyclopropanecarboxamide]
IC50 (pCRKL in K562 cells): 275 nM
IC50 (ABL1): 23.1 nM
IC50 (ABL1 (T315I)): 39.8 nM
IC50 (HL60 cells): > 10000 nM
IC50 (K562 cells): 151 nM

COc1ccccc1-c1c[nH]c2nc(NC(=O)NCCN3CCN(C)CC3)ccc12 [Compound 42, 3-[3-(2-methoxyphenyl)-1H-pyrrolo[2,3-b]pyridin-6-yl]-1-[2-(4-methylpiperazin-1-yl)ethyl]urea]
IC50 (pCRKL in K562 cells): 88.3 nM
IC50 (ABL1): 45.4 nM
IC50 (ABL1 (T315I)): 12.7 nM
IC50 (HL60 cells): > 10000 nM
IC50 (K562 cells): 254 nM
